Data published in patent US20250129103A1, “METHODS FOR TREATMENT OF CANCER” (Frontier Medicines Corporation, priority 2022, published 2025).

Biological target: KRAS G12C (GMPPNP-loaded) and cRAF (Ras-binding domain) interaction (Homo sapiens (Human), UniProt P01116, C118S/C51S/C80L/G12C)
Test: Inhibition of KRAS G12C and cRAF binding (AlphaScreen)
Details: KRAS G12C loaded with GMPPNP, cRaf RBD, 2 hours preincubation; read-out: Raf-1 RBD K-Ras IC50
Method: Compounds were diluted in 100% DMSO and each compound concentration was spotted at 200 nl/well onto low volume, white 384 well plates. […] KRAS G12C was preloaded with the GTP analogue Guanosine 5′-[β,γ-imido]triphosphate (GMPPNP). The KRAS G12C was diluted in 25 mM Hepes, pH 7.4, 150 mM NaCl, 5 mM MgCl2, 0.01% TritonX-100 and 10 μM GMPPNP and added at 10 ul/well to compound-spotted plates resulting in a DMSO concentration of 2%. Plates were incubated for 2 hours. A mixture of RBD and the AlphaScreen streptavidin donor and glutathione acceptor beads diluted in 25 mM Hepes, pH 7.4, 150 mM NaCl, 5 mM MgCl2, 0.01% TritonX-100 and 2% DMSO was then added at 10 ul/well and incubated for 60-90 minutes before the samples were read for emission at 570 nm after excitation of the donor beads at 680 nm. All incubations were performed at room temperature. The final top compound concentration was 50 μM with 1:3 titrations for 10-point dose response curves. […] IC50S were determined using nonlinear regression fit of [inhibitor] vs. response (4 parameters). […]

KRAS G12C (GMPPNP-loaded) and cRAF (Ras-binding domain) interaction, sequence (P01116 other isoform, or with tags, fused parts or gaps G12C/C51S/C80L/C118S): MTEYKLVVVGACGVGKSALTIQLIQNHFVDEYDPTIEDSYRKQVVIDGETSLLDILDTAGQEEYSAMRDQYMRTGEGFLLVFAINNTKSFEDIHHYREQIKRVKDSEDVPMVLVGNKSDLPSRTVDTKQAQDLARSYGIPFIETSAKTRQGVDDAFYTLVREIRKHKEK

IC50	SMILES
< 10 nM	N#CC[C@H]1CN(c2nc(OCC34CCCN3CCC4)nc3c(F)c(-c4cccc5cccc(Cl)c45)ncc23)CCN1C(=O)/C=C/CN1C[C@@H]2C[C@H]1CO2 [Compound 184]
< 10 nM	N#CC[C@H]1CN(c2nc(OCC34CCCN3CCC4)nc3c(F)c(-c4cccc5cccc(Cl)c45)ncc23)CCN1C(=O)/C=C/CN1C[C@H]2C[C@@H]1CO2 [Compound 185]
< 10 nM	N#CC[C@H]1CN(c2nc(OCC34CCCN3CCC4)nc3c2CCN(c2cccc4cccc(Cl)c24)C3)CCN1C(=O)/C=C/CN1CC2(COC2)C1 [Compound 194]
10 to 100 nM	C[C@@H]1CN(C/C=C/C(=O)N2CCN(c3nc(OCC45CCCN4CCC5)nc4c3CCN(c3cccc5cccc(Cl)c35)C4)C[C@@H]2CC#N)C[C@H](C)O1 [Compound 196]
10 to 100 nM	C[C@@H]1CN(C/C=C/C(=O)N2CCN(c3nc(OCC45CCCN4CCC5)nc4c3CCN(c3cccc5cccc(Cl)c35)C4)C[C@@H]2CC#N)C[C@@H](C)O1 [Compound 197]
< 10 nM	C[C@H]1CN(C/C=C/C(=O)N2CCN(c3nc(OCC45CCCN4CCC5)nc4c3CCN(c3cccc5cccc(Cl)c35)C4)C[C@@H]2CC#N)C[C@H](C)O1 [Compound 198]
< 10 nM	CO[C@H]1CCN(C/C=C/C(=O)N2CCN(c3nc(OCC45CCCN4CCC5)nc4c3CCN(c3cccc5cccc(Cl)c35)C4)C[C@@H]2CC#N)C1 [Compound 200]
< 10 nM	N#CC[C@H]1CN(c2nc(OCC34CCCN3CCC4)nc3c2CCN(c2cccc4cccc(Cl)c24)C3)CCN1C(=O)/C=C/CN1CC2CC2C1 (stereo partly drawn) [Compound 204]
< 10 nM	COC1CN(C/C=C/C(=O)N2CCN(c3nc(OCC45CCCN4CCC5)nc4c3CCN(c3cccc5cccc(Cl)c35)C4)C[C@@H]2CC#N)C1 [Compound 205]
100 to 500 nM	Cc1nccc(/C=C/C(=O)N2CCN(c3nc(OCC45CCCN4CCC5)nc4c3CCN(c3cccc5ccc(F)c(Cl)c35)C4)C[C@@H]2CC#N)n1 [Compound 206]
100 to 500 nM	Cc1cc(/C=C/C(=O)N2CCN(c3nc(OC[C@@]45CCCN4C[C@H](F)C5)nc4c(F)c(-c5cccc6ccccc56)ncc34)C[C@@H]2CC#N)nc(C)n1 [Compound 209]
100 to 500 nM	Cc1nccc(/C=C/C(=O)N2CCN(c3nc(OC[C@@]45CCCN4C[C@H](F)C5)nc4c(F)c(-c5cccc6ccccc56)ncc34)C[C@@H]2CC#N)n1 [Compound 210]
100 to 500 nM	Cc1nccc(/C=C/C(=O)N2CCN(c3nc(OC[C@@]45CCCN4C[C@H](F)C5)nc4c(F)c(-c5c(C)cc(F)c6[nH]ncc56)ncc34)C[C@@H]2CC#N)n1 [Compound 212]
100 to 500 nM	N#CC[C@H]1CN(c2nc(OC[C@@]34CCCN3C[C@H](F)C4)nc3c(F)c(-c4cccc5ccc(F)c(Cl)c45)ncc23)CCN1C(=O)/C=C/CN1CCS(=O)(=O)CC1 [Compound 213]
< 10 nM	CO[C@@H]1CCN(C/C=C/C(=O)N2CCN(c3nc(OC[C@@]45CCCN4C[C@H](F)C5)nc4c(F)c(-c5cccc6cccc(F)c56)ncc34)C[C@@H]2CC#N)C1 [Compound 221]
> 500 nM	Cc1nccc(/C=C/C(=O)N2CCN(c3nc(OC[C@@]45CCCN4C[C@H](F)C5)nc4c(F)c(-c5n[nH]c6cccc(Cl)c56)ncc34)C[C@@H]2CC#N)n1 [Compound 230]
< 10 nM	N#CC[C@H]1CN(c2nc(OC[C@@]34CCCN3C[C@H](F)C4)nc3c(F)c(-c4cccc5ccc(F)c(Cl)c45)ncc23)CCN1C(=O)/C=C/CN1CCSCC1 [Compound 231]
10 to 100 nM	C[C@@H]1CN(C/C=C/C(=O)N2CCN(c3nc(OC[C@@]45CCCN4C[C@H](F)C5)nc4c(F)c(-c5cccc6cccc(F)c56)ncc34)C[C@@H]2CC#N)C[C@H](C)O1 [Compound 234]
100 to 500 nM	Cc1cc(/C=C/C(=O)N2CCN(c3nc(OC[C@@]45CCCN4C[C@H](F)C5)nc4c(F)c(-c5cccc6c(C)c(F)ccc56)ncc34)C[C@@H]2CC#N)nc(C)n1 [Compound 250]
100 to 500 nM	Cc1c(F)ccc2c(-c3ncc4c(N5CCN(C(=O)/C=C/CN6CCOCC6)[C@@H](CC#N)C5)nc(OC[C@@]56CCCN5C[C@H](F)C6)nc4c3F)cccc12 [Compound 252]
> 500 nM	Cc1nccc(/C=C/C(=O)N2CCN(c3nc(OC[C@@]45CCCN4C[C@H](F)C5)nc4c(F)c(-c5cccc6c(C)c(F)ccc56)ncc34)C[C@@H]2CC#N)n1 [Compound 260]
10 to 100 nM	N#CC[C@H]1CN(c2nc(OC[C@@]34CCCN3C[C@H](F)C4)nc3c(F)c(-c4cccc5cccc(Cl)c45)ncc23)CCN1C(=O)/C=C/CN1CCn2ccnc2C1 [Compound 262]
10 to 100 nM	N#CC[C@H]1CN(c2nc(OC[C@@]34CCCN3C[C@H](F)C4)nc3c(F)c(-c4cccc5ccc(F)c(F)c45)ncc23)CCN1C(=O)/C=C/CN1CCn2ccnc2C1 [Compound 263]
100 to 500 nM	N#CC[C@H]1CN(c2nc(OC[C@@]34CCCN3C[C@H](F)C4)nc3c(F)c(-c4cccc5ccc(F)c(F)c45)ncc23)CCN1C(=O)/C=C/CN1CCn2ccnc2C1 [Compound 264]
100 to 500 nM	N#CC[C@H]1CN(c2nc(OC[C@@]34CCCN3C[C@H](F)C4)nc3c(F)c(-c4cccc5cccc(Cl)c45)ncc23)CCN1C(=O)/C=C/CN1CCn2ncnc2C1 [Compound 265]
100 to 500 nM	N#CC[C@H]1CN(c2nc(OC[C@@]34CCCN3C[C@H](F)C4)nc3c(F)c(-c4cccc5ccc(F)c(F)c45)ncc23)CCN1C(=O)/C=C/CN1CCn2ncnc2C1 [Compound 266]
10 to 100 nM	N#CC[C@H]1CN(c2nc(OC[C@@]34CCCN3C[C@H](F)C4)nc3c(F)c(-c4cccc5cccc(Cl)c45)ncc23)CCN1C(=O)/C=C/CN1CCn2ncnc2C1 [Compound 267]
10 to 100 nM	N#CC[C@H]1CN(c2nc(OC[C@@]34CCCN3C[C@H](F)C4)nc3c(F)c(-c4cccc5ccc(F)c(F)c45)ncc23)CCN1C(=O)/C=C/CN1CCn2nccc2C1 [Compound 268]
100 to 500 nM	N#CC[C@H]1CN(c2nc(OC[C@@]34CCCN3C[C@H](F)C4)nc3c(F)c(-c4cccc5cccc(Cl)c45)ncc23)CCN1C(=O)/C=C/CN1CCn2cnnc2C1 [Compound 270]

SMILES	IC50
N#CC[C@H]1CN(c2nc(OCC34CCCN3CCC4)nc3c2CCN(c2cccc4cccc(Cl)c24)C3)CCN1C(=O)/C=C/CN1C2COCC1C2 [Compound 199]	< 10 nM
N#CC[C@H]1CN(c2nc(OC[C@@]34CCCN3C[C@H](F)C4)nc3c(F)c(-c4cccc5cccc(F)c45)ncc23)CCN1C(=O)/C=C/CN1C2COCC1C2 [Compound 248]	10 to 100 nM
Cc1c(F)ccc2c(-c3ncc4c(N5CCN(C(=O)/C=C/CN6[C@@H]7CC[C@H]6COC7)[C@@H](CC#N)C5)nc(OC[C@@]56CCCN5C[C@H](F)C6)nc4c3F)cccc12 [Compound 251]	100 to 500 nM
Cc1c(F)ccc2c(-c3ncc4c(N5CCN(C(=O)/C=C/CN6CC7CC(C6)O7)[C@@H](CC#N)C5)nc(OC[C@@]56CCCN5C[C@H](F)C6)nc4c3F)cccc12 [Compound 253]	> 500 nM
N#CC[C@H]1CN(c2nc(OC[C@@]34CCCN3C[C@H](F)C4)nc3c(F)c(-c4cccc(F)c4C4CC4)ncc23)CCN1C(=O)/C=C/CN1C2CCC1COC2 [Compound 269]	< 10 nM
N#CC[C@H]1CN(c2nc(OC[C@@]34CCCN3C[C@H](F)C4)nc3c(F)c(-c4ccccc4C4CC4)ncc23)CCN1C(=O)/C=C/CN1[C@@H]2CC[C@H]1COC2 [Compound 271]	10 to 100 nM
N#CC[C@H]1CN(c2nc(OC[C@@]34CCCN3C[C@H](F)C4)nc3c(F)c(-c4ccc(F)c(F)c4C4CC4)ncc23)CCN1C(=O)/C=C/CN1[C@@H]2CC[C@H]1COC2 [Compound 272]	10 to 100 nM
